US20220265818A1, “CHIMERIC ANTIGENS FOR TREATING VIRAL INFECTION” (AKSHAYA BIO INC., priority 2019, published 2022)

System: HBV
Test: Liver HBV DNA in HBV transgenic mice
Conditions: ADV at 5 mg/kg/day, oral gavage

SMILES: CC(C)(C)C(=O)OCOP(=O)(COCCn1cnc2c(N)ncnc21)OCOC(=O)C(C)(C)C [ADV, Adefovir dipivoxil]
- liver HBV DNA: reduced liver HBV DNA
